Assay results taken from patent US20200270309A1, “MALEIMIDE GROUP-MODIFIED ANGIOGENESIS INHIBITOR HM-1 AND USE THEREOF” (NANJING ANJI BIOLOGICAL TECHNOLOGY CO., LTD, priority 2017, published 2020).
Marks after values point to notes of the source that are not given here. Peptide text beside a SMILES is read from it. * marks the point of attachment. X68 = O=C1C=CC(=O)N1c1ccccc1CCCCCCCCCCCC(=O)*; X75 = O=C1C=CC(=O)N1c1cccc(CC(=O)*)c1

Experiments:
[1] = test system: retinal neovascularization (OIR model); assay: Retinal vessels in OIR mice; type: in vivo, C57/B16 mice; conditions: for Area of neovascular plexus (mm^2): dose 0.05 μM in the vitreous chamber on day 13, retinal vessels evaluated on day 17; for Inhibition rate (%): dose 0.05 μM in the vitreous chamber on day 13, retinal vessels evaluated on day 17, vs negative control
In short: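 C57/B16 pups were held in 75% oxygen from postnatal day 7 to 12, then returned to room air. On day 13 they received intravitreal saline or compound. On day 17 perfused vessels were labelled by Texas red tomato agglutinin injected into the left ventricle (5 min circulation) and retinal vasculature assessed.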

[2] = test system: carrageenan-induced toe swelling; assay: Carrageenan-induced toe swelling in rats; type: in vivo; conditions: SD rats; for Swelling degree 1 h: 1 h after carrageenan; for Swelling degree 3 h: 3 h after carrageenan; for Swelling degree 5 h: 5 h after carrageenan; for Swelling degree 7 h: 7 h after carrageenan
In short: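 Rats dosed by injection once daily for 3 d, controls given equal-volume saline. Right hind paw volume measured by water displacement to a marked joint line; swelling degree (mL) is paw volume after carrageenan inflammation minus volume before.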

[3] = test system: choroidal neovascularization; assay: Choroidal neovascularization in rats (laser photocoagulation, FFA); type: in vivo; conditions: BN rats
In short: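 Male BN rats aged 6-8 weeks were given 8 krypton-laser spots around the optic disc (647.1 nm, 350 mW, 50 μm, 0.05 s). Once the model was confirmed, groups of 5 got daily intravitreal compound at 0.05 μM or saline for 1 week. FFA followed at 3, 7, 14 and 28 days after dosing.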

[4] = test system: human retinal capillary endothelial cells (HRCECs); assay: MTT proliferation inhibition on HRCECs; type: cell-based; conditions: 48 h; for A570 nm-A630 nm: mean±SD
In short: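 HRCECs seeded at 3.0×10^4 cells/mL, adhered overnight, then exposed to polypeptide for 48 h at 37 °C, 5% CO2. MTT added 4 h, formazan dissolved in DMSO, absorbance 570/630 nm; PIR (%) = 1 − treated/negative control, mean±SD of three independent runs.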

[5] = test system: xylene-induced ear swelling; assay: Xylene-induced mouse ear swelling; type: in vivo; conditions: Kunming mice, injected once a day for 5 days; for Swelling degree / Swelling degree (mg): right minus left ear piece weight 2 h after xylene; for Inhibition rate (%): xylene-induced ear swelling
In short: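 Kunming mice dosed by injection once daily for 5 days; 1 h after last dose, 0.05 mL xylene applied to right ear, left ear untreated. Mice killed 2 h later; punched ear pieces weighed. Swelling degree = right minus left ear weight; swelling rate = swelling degree/left ear weight ×100%.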

[6] = day 3 after administration, total light spot number was 297, 0.05 μM in the vitreous chamber once a day for 1 week
[7] = day 7 after administration, total light spot number was 186, 0.05 μM in the vitreous chamber once a day for 1 week
[8] = day 14 after administration, total light spot number was 137, 0.05 μM in the vitreous chamber once a day for 1 week
[9] = day 28 after administration, total light spot number was 69, 0.05 μM in the vitreous chamber once a day for 1 week

Structure (SMILES)	Area of neovascular plexus (mm^2) [1] [mm^2]	Inhibition rate (%) [1] [%**]	Swelling degree 1 h ([2]; 2.0 mg/kg once a day for 3 d) [mg]	Swelling degree 3 h ([2]; 2.0 mg/kg once a day for 3 d) [mg]	Swelling degree 5 h ([2]; 2.0 mg/kg once a day for 3 d) [mg]	Swelling degree 7 h ([2]; 2.0 mg/kg once a day for 3 d) [mg]	Swelling degree 1 h ([2]; 4.0 mg/kg once a day for 3 d) [mg]	Swelling degree 3 h ([2]; 4.0 mg/kg once a day for 3 d) [mg]	Swelling degree 5 h ([2]; 4.0 mg/kg once a day for 3 d) [mg]	Swelling degree 7 h ([2]; 4.0 mg/kg once a day for 3 d) [mg]	CNV Incidence (%) [3, 6] [%]	Leakage Light spot number [3, 6]	CNV Incidence (%) [3, 7] [%]	Leakage Light spot number [3, 7]	CNV Incidence (%) [3, 8] [%]	Leakage Light spot number [3, 8]	CNV Incidence (%) [3, 9] [%]	Leakage Light spot number [3, 9]	Inhibition rate (%) ([4]; dose 0.05 μM) [%*]	A570 nm-A630 nm ([4]; dose 0.05 μM)	other results
C[C@H](NC(=O)CNC(=O)[C@H](CCCNC(=N)N)NC(=O)Cc1cccc(N2C(=O)C=CC2=O)c1)C(=O)N[C@@H](CC(=O)O)C(=O)N[C@@H](CCCNC(=N)N)C(=O)N[C@@H](C)C(=O)NCC(=O)NCC(=O)NCC(=O)NCC(=O)N[C@@H](CCCNC(=N)N)C(=O)NCC(=O)N[C@@H](CC(=O)O)C(=O)O [X25] (X75-RGADRAGGGGRGD-OH)	0.096 ± 0.012	54.72	0.29 ± 0.17	0.38 ± 0.12	0.46 ± 0.18	0.34 ± 0.13	0.27 ± 0.15	0.36 ± 0.19	0.44 ± 0.18	0.33 ± 0.12	51.85	154	47.31	88	43.07	59	44.93	31	50.23	0.6578 ± 0.08044	Inhibition rate (%) ([4]; dose 0.1 μM): 54.21%**; A570 nm-A630 nm ([4]; dose 0.1 μM): 0.6052 ± 0.09358; Inhibition rate (%) ([4]; dose 0.2 μM): 63.33%*; A570 nm-A630 nm ([4]; dose 0.2 μM): 0.4847 ± 0.06551; Swelling degree ([5]; dose 2 mg/kg): 5.62 ± 0.64 mg; Inhibition rate (%) ([5]; dose 2 mg/kg): 9.79%; Swelling degree (mg) ([5]; dose 4 mg/kg): 4.45 ± 0.20* mg; Inhibition rate (%) ([5]; dose 4 mg/kg): 28.57%; Swelling degree (mg) ([5]; dose 8 mg/kg): 3.3 ± 0.06** mg; Inhibition rate (%) ([5]; dose 8 mg/kg): 47.03%
C[C@H](NC(=O)CNC(=O)[C@H](CCCNC(=N)N)NC(=O)CCCCCCCCCCCc1ccccc1N1C(=O)C=CC1=O)C(=O)N[C@@H](CC(=O)O)C(=O)N[C@@H](CCCNC(=N)N)C(=O)N[C@@H](C)C(=O)NCC(=O)NCC(=O)NCC(=O)NCC(=O)N[C@@H](CCCNC(=N)N)C(=O)NCC(=O)N[C@@H](CC(=O)O)C(=O)O [X23] (X68-RGADRAGGGGRGD-OH)	0.101 ± 0.002	52.36	0.28 ± 0.17	0.34 ± 0.19	0.37 ± 0.11	0.35 ± 0.18	0.26 ± 0.16	0.34 ± 0.19	0.38 ± 0.13	0.34 ± 0.17	52.86	157	45.70	85	44.53	61	37.68	26	45.59	0.7191 ± 0.07483	Inhibition rate (%) ([4]; dose 0.1 μM): 46.74%**; A570 nm-A630 nm ([4]; dose 0.1 μM): 0.7043 ± 0.07872; Inhibition rate (%) ([4]; dose 0.2 μM): 48.91%*; A570 nm-A630 nm ([4]; dose 0.2 μM): 0.6753 ± 0.00095; Swelling degree ([5]; dose 2 mg/kg): 5.64 ± 0.84 mg; Inhibition rate (%) ([5]; dose 2 mg/kg): 9.47%; Swelling degree (mg) ([5]; dose 4 mg/kg): 3.63 ± 0.51** mg; Inhibition rate (%) ([5]; dose 4 mg/kg): 41.73%; Swelling degree (mg) ([5]; dose 8 mg/kg): 3.47 ± 0.06** mg; Inhibition rate (%) ([5]; dose 8 mg/kg): 44.30%
